In paper PMC6934184, “Selective DNA-PKcs inhibition extends the therapeutic index of localized radiotherapy and chemotherapy” (The Journal of Clinical Investigation, 2019):

Target: T1, LCK (Homo sapiens, UniProt P06239)
T1 construct: purchased Thermo Fisher Scientific (Life Technologies) SelectScreen
Assay: SelectScreen Z'LYTE
Assay type: biochemical
In short: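 Compound tested in SelectScreen activity assays, Z'LYTE for CSF1R, CDK1/cyclin B and MAP2K6 and Adapta for CAMK1. ATP for CAMK1 was listed as 10, and Km app was used for CSF1R. Results are expressed in percent.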

T1 sequence (P06239 whole entry): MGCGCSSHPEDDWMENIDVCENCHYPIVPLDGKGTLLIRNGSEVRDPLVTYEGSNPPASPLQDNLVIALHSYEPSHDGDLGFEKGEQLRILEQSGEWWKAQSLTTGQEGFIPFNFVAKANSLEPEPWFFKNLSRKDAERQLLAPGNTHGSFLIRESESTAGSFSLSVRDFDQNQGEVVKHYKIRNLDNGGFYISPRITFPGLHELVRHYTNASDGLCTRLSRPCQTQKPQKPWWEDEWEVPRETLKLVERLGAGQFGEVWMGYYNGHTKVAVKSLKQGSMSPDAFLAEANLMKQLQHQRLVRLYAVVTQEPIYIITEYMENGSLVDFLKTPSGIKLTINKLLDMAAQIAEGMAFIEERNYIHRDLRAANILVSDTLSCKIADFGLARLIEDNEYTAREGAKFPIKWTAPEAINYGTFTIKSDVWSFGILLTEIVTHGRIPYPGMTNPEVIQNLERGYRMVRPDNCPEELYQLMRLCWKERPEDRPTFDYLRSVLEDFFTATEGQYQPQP

Q: For CN(C(=O)CN1CCOCC1)c1ccc2sc3c(-c4cccc5c(=O)cc(N6CC7CCC(C6)O7)oc45)cccc3c2c1 [NU5455], which inhibition at 1 µM is on record?
A: Its inhibition at 1 µM is 9.6%.
